Measured values as given in article PMC9214538, “The M1 muscarinic receptor is present in situ as a ligand-regulated mixture of monomers and oligomeric complexes” (Proceedings of the National Academy of Sciences of the …, 2022).
Read-outs that look alike come from different tables or passages of the source. Numbered stars: 1 amine (or outer) side, 2 acyl side, 3 side chain; on linkers, the order of the positions; unused ones are H or OH. Bridge positions count the residues as written; N and C are the ends. Square brackets hold non-standard residues; d marks the D form. Peptide text beside a SMILES is read from it. * marks the point of attachment. Leu(3R-OH,Nα-propionyl) = CCC(=O)N[C@H](C(=O)*)[C@H](O)C(C)C; X1 = CC(C)[C@@H](O[*:3])[C@H](N[*:1])C(=O)[*:2]; NMeT = CN[C@H](C(=O)O)[C@@H](C)O; dPhLac = O=C(O)[C@H](O)Cc1ccccc1; NMeA = CN[C@@H](C)C(=O)O; NMeDha = C=C(NC)C(=O)O

Columns and labels:
D3 dopamine receptor = test system: D3 dopamine receptor; parameters: method as in PMID 28522847; conditions: ref [40]; cited from earlier work
[1] = test system: hippocampal and cortical neurons; assay: Ca^2+ imaging (Fura-8 AM) in primary neuronal cultures; format: cell-based, mice; conditions: for elevation of [Ca^2+] / percentage of tested cells that responded to carbachol: 300 μM carbachol
Protocol: Primary neuronal cells were plated onto precoated cover slides at a density of 5 × 10^5 and maintained at 37 °C in a 5% CO2 humidified atmosphere. On DIV7, cells were loaded with the calcium-sensitive dye Fura-8 AM; 3 µM Fura-8 was added to normal growth medium and the cells incubated at 37 °C for 30 min. Cells were then washed and incubated with HBSS with or without 1 µM FR900359 for 30 min. Coverslips were then placed into a microscope chamber containing HBSS and assays were performed as described previously ([46]).

chemokine CXCR4 = conditions: ref [10], [41]; cited from earlier work
[2] = biological target: muscarinic receptor (total muscarinic-receptor subtypes); assay: [^3H]NMS saturation binding on membrane preparations of cortex and hippocampus; parameters: species or system mice; conditions: mean ± SD, five animals
Description: We performed [^3H]NMS-binding studies on membrane preparations as described previously ([20]).

muscarinic receptor = assay: [^3H]NMS binding on intact primary neuronal cells; parameters: species or system mice; conditions: read-out: dissociation constant (Kd) of the radioligand
Protocol: Primary neuronal cells were seeded at a density of 5 × 10^4 cells/well onto a 96-well plate and maintained at 37 °C in a 5% CO2 humidified atmosphere. On the sixth day in vitro, cells were washed twice with binding buffer (110 mM NaCl, 5.4 mM KCl, 1.8 mM CaCl2, 1 mM MgSO4, 25 mM glucose, 20 mM 4-(2-hydroxyethyl)-1-piperazineethanesulfonic acid [HEPES], 58 mM sucrose). A range of [^3H]NMS concentrations (between 0 and 10 nM) were added to appropriate wells containing buffer or 10-µM atropine to determine total and nonspecific binding in 100 µL of final-volume binding buffer. Plates were incubated for 2 h at 37 °C and the reactions were terminated by removal of the binding mixture followed by 3 × 200 µL/well ice-cold NaCl 0.9% washes. We added 100 µL/well of Microscint-20, and the plates were sealed before overnight incubation at room temperature on a rapidly shaking platform. Bound ligand was determined using a Packard Topcount NXT (Perkin-Elmer Life Sciences).

**Q.** With `O=C(CCCN1CCC2(CC1)C(=O)NCN2c1ccccc1)c1ccc(F)cc1` [spiperone] as the compound, how does the “effect on dimers of the D3 dopamine receptor” value (D3 dopamine receptor) read?
**A.** destabilize dimers of the D3 dopamine receptor

**Q.** For `Nc1ncnc2c1ncn2[C@@H]1O[C@H](COP(=O)(O)OP(=O)(O)OP(=O)(O)O)[C@@H](O)[C@H]1O` [adenosine triphosphate], which “elevation of intracellular [Ca^2+]” value ([1]; 10 μM ATP added after carbachol, cells from M1-KO mice) is on record?
**A.** able to elicit rapid elevation of intracellular [Ca^2+]

**Q.** For `O=C(CCCN1CCC(O)(c2ccc(Cl)cc2)CC1)c1ccc(F)cc1` [haloperidol], which “effect on dimers of the D3 dopamine receptor” value (D3 dopamine receptor) is on record?
**A.** destabilize dimers of the D3 dopamine receptor

**Q.** Which “effect on dimers of CXCR4” value (chemokine CXCR4) does the source give for `CC1(C)CN2C(CSC(=NC3CCCCC3)NC3CCCCC3)=CSC2=N1` [IT1t] here?
**A.** disrupt dimers of the chemokine CXCR4

**Q.** For `C=C1C(=O)N[C@@H](C)C(=O)N(C)[C@@H](C)C(=O)N[C@@H]([C@H](OC(=O)[C@@H](NC(=O)CC)[C@H](O)C(C)C)C(C)C)C(=O)N(C)[C@@H]([C@@H](C)OC)C(=O)O[C@H](C(C)C)[C@H](NC(C)=O)C(=O)O[C@H](Cc2ccccc2)C(=O)N1C` [FR900359] (Ac-[X1][dPhLac][NMeDha]A[NMeA][X1](Leu(3R-OH,Nα-propionyl))[NMeT](Me); ester 1-C), which “effect on carbachol-induced elevation of [Ca^2+]” value ([1]; pretreatment with 1 µM FR900359 for 30 min, P < 0.001) is on record?
**A.** prevented

**Q.** With `C[N+](C)(C)CCOC(N)=O` [carbachol] as the compound, how does the “elevation of [Ca^2+]” value ([1]; cells from M1-KO mice) read?
**A.** did not promote a large increase of [Ca^2+]

**Q.** And the “elevation of [Ca^2+]” value ([1]; neuronal cultures from WT and homozygous M1-mEGFP mice)?
**A.** promoted elevation of [Ca^2+]

**Q.** What about the “percentage of tested cells that responded to carbachol” value ([1]; neurons from M1-mEGFP mice, mean ± SD) of the same compound?
**A.** 36.7% ± 4.0%

**Q.** What about the “percentage of tested cells that responded to carbachol” value ([1]; neurons from WT mice) of the same compound?
**A.** 26.8% ± 3.4%
